The target in one data set is T1, HSA Sudlow site I (Homo sapiens, UniProt P02768).
T1 construct: purchased Chiral Technologies Europe (Daicel Chemical Industries, Ltd., Osaka, Japan)
Briefly: Displacement chromatography (zonal elution) with warfarin as competitor. Type of data set: binding. The following applies: k decreases with rising warfarin, P < 0.05; 1/k vs competitor linear, positive slope.

For data set [1], the target named is human serum albumin (HSA) (Homo sapiens, UniProt P02768). The following applies: for k (retention factor): Chiralpak HSA column, racemates.
Data set [2] concerns HSA. The following applies: equilibrium and dynamic dialysis; cited from earlier work.
For data set [3], the system named is HSA. As to conditions: value in brackets; cited from earlier work.
Data set [4] deals with differentiated SH-SY5Y cells. As to conditions: cited from earlier work.
In another data set the test system is bovine serum albumin. As to conditions: spectroscopic technology; cited from earlier work.
The test system of data set [5] is HSA. Also noted: method as in PMID 24666938. As to conditions: HPAC, immobilized HSA column; cited from earlier work.
The test system of the next data set is human plasma proteins. The following applies: racemate incubated with plasma, ultrafiltration; cited from earlier work.
The subject of data set [6] is HSA. The following applies: cited from earlier work.
In data set [7] the test system is HSA. The following applies: literature-reported; cited from earlier work.
Where [8] appears, read: 100% potassium phosphate buffer 67 mM pH 7.0, 25 °C.
The mark [9] stands for this setting: from k by Eq. 4, 100% potassium phosphate buffer 67 mM pH 7.0, 25 °C.

Where two headings read alike, the source gives them in different places.

human serum albumin (HSA), sequence (P02768 25-609): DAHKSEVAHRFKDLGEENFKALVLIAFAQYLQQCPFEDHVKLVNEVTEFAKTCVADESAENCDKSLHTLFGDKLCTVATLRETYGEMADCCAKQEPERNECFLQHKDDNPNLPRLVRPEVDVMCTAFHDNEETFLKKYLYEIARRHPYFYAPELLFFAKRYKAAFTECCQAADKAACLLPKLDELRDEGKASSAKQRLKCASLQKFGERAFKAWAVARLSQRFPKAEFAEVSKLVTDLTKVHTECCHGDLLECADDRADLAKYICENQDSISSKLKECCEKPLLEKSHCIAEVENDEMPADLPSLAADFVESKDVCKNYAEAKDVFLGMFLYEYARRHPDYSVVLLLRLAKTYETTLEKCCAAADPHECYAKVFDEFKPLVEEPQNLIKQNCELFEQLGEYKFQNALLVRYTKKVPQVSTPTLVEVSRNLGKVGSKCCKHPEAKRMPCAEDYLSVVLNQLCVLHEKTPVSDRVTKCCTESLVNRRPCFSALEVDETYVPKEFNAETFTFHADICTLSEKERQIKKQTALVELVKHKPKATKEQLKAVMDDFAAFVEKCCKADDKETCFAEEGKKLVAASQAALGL
T1 sequence (P02768 25-609): as above

For `COc1ccc2c3c1O[C@H]1[C@@H](O)C=C[C@H]4[C@@H](C2)N(C)CC[C@@]341` [COD, codeine], the “Competition with warfarin (site I)” value at HSA Sudlow site I is “competition was also observed for both sites I and II”. Further, the “k (retention factor)” value in data set [1] (setting [8]) came to 1.89. In data set [1] (setting [9]), the “Bound fraction (%b) to HSA” value is reported as 65%. Further, the “Binding percentage to HSA” value with HSA [2] is recorded as “about 29%”.

Take `CN(C)CCCN1c2ccccc2Sc2ccc(Cl)cc21` [Chlorpromazine, chlorpromazine]: the “Bound fraction (%b) to HSA, experimental, controls” value in data set [1] (human, pH 7) is 98.1%. The “Bound fraction (%b) to HSA, literature value” in the data set on HSA [3] is listed as above 90%.

`CNC(C)CN1c2ccccc2Sc2ccccc21` (stereo not shown) [DMPMZ, N-desmonomethyl promethazine]: the Cytotoxicity entry in data set [4] was “even more cytotoxic than PMZ”. Besides, the “Competition with warfarin (site I)” value on HSA Sudlow site I is “also compete with warfarin and (S)-ibuprofen”. For the same molecule, the “k (retention factor)” value in [1] (setting [8]) is given as 16.34.

With `Cc1ncc([N+](=O)[O-])n1CCO` [Metronidazole, metronidazole], the “Bound fraction (%b) to HSA, experimental, controls” value in data set [1] (human, pH 7) is 19.8%. The “Bound fraction (%b) to HSA, literature value” in the data set with HSA [3] is given as 20.0%.

As for `CC(CN1c2ccccc2Sc2ccccc21)N(C)C` (stereo not shown) [PMZ, promethazine], the “Competition with warfarin (site I)” value at HSA Sudlow site I was “competes with warfarin”. Besides, the “Binding constant to bovine serum albumin” value with bovine serum albumin is given as 1.40 ± 0.04 × 10^4 M^−1. In addition, the “Bound fraction (%b) to HSA” value in data set [1] (setting [9]) is 98%. Further, the “Association constant of binding to HSA” value with HSA [5] is recorded as 1.24 ± 0.14 × 10^4 M^−1; with HSA [6] (fluorescence and adsorption spectroscopy), 1.57 ± 0.20 × 10^4 M^−1. The “Enantioselective binding to human plasma proteins” value in the data set with human plasma proteins is “evidence of the enantioselective binding”. Also, the “Binding site on HSA” value with HSA [6] (fluorescence spectroscopy) was “located in site I (subdomain IIA)”.

Turning to `CC(CN1c2ccccc2[S+]([O-])c2ccccc21)N(C)C` (stereo not shown) [PMZSO, promethazine sulphoxide], the “Competition with warfarin (site I)” value on HSA Sudlow site I was “also compete with warfarin and (S)-ibuprofen”. Moreover, the “k (retention factor)” value in data set [1] (setting [8]) is on record as 3.99. Besides, the “Bound fraction (%b) to HSA” value in [1] (human, 50 µg/mL, pH 7) was found to be 80%.

As to `CC(=O)CC(c1ccccc1)c1c(O)c2ccccc2oc1=O` (stereo not shown) [Warfarin, warfarin], the “Affinity constant for HSA” value with HSA [7] was 330000 M⁻¹.
